What was measured:
[1] = tested on: Botryotinia fuckeliana (Botrvtis cinerea); assay: Botryotinia fuckeliana (Botrvtis cinerea)/Liquid Culture (Gray Mould); assay type: cell-based; settings: Botrytis cinerea; 200 ppm in the formulation; liquid culture, growth inhibition photometrically 3-4 days after application; compared to untreated control; read-out: disease control
Description: (§1) Botryotinia fuckeliana (Botrvtis cinerea)/Liquid Culture (Gray Mould) Conidia of the fungus from cryogenic storage are directly mixed into nutrient broth (Vogels broth). After placing a (DMSO) solution of test compound into a microtiter plate (96-well format), the nutrient broth containing the fungal spores is added. The test plates are incubated at 24° C. and the inhibition of growth is determined photometrically 3-4 days after application.

[2] = tested on: Glomerella lagenarium (Colletotrichum lagenarium); assay: Glomerella lagenarium (Colletotrichum lagenarium)/Liquid Culture (Anthracnose); assay type: cell-based; settings: Colletotrichum orbiculare; 200 ppm in the formulation; liquid culture, growth inhibition photometrically 3 to 4 days after application; compared to untreated control; read-out: disease control
Description: as §1, with “Glomerella lagenarium (Colletotrichum lagenarium)/Liquid” for “Botryotinia fuckeliana (Botrvtis cinerea)/Liquid”, “(Anthracnose)” for “(Gray Mould)”, “(PDB potato dextrose” for “(Vogels”, “measured” for “determined”, “3 to 4” for “3-4”

[3] = tested on: Mycosphaerella arachidis (Cercospora arachidicola); assay: Mycosphaerella arachidis (Cercospora arachidicola)/Liquid Culture (Early Leaf Spot); assay type: cell-based; settings: 200 ppm in the formulation, liquid culture, growth inhibition photometrically 4-5 days after application, compared to untreated control, read-out: disease control
Description: as §1, with “Mycosphaerella arachidis (Cercospora arachidicola)/Liquid” for “Botryotinia fuckeliana (Botrvtis cinerea)/Liquid”, “(Early Leaf Spot)” for “(Gray Mould)”, “(PDB potato dextrose” for “(Vogels”, “4-5” for “3-4”

[4] = tested on: Mycosphaerella graminicola (Septoria tritici); assay: Mycosphaerella graminicola (Septoria tritici)/Liquid Culture (Septoria Blotch); assay type: cell-based; settings: Zymoseptoria tritici; 200 ppm in the formulation; liquid culture, growth inhibition photometrically 4 to 5 days after application; compared to untreated control; read-out: disease control
Description: as §1, with “Mycosphaerella graminicola (Septoria tritici)/Liquid” for “Botryotinia fuckeliana (Botrvtis cinerea)/Liquid”, “(Septoria Blotch)” for “(Gray Mould)”, “(PDB potato dextrose” for “(Vogels”, “4 to 5” for “3-4”

[5] = tested on: Puccinia recondita f. sp. tritici; assay: Puccinia recondita f. sp. tritici/Wheat/Leaf Disc Preventative (Brown Rust); assay type: in vivo; settings: foliar, 200 ppm in the formulation, wheat leaf segments cv. Kanzler, inoculated 1 day after application, assessed 7-9 days after application, compared to untreated, read-out: disease control
Description: Puccinia recondita f. sp. tritici/Wheat/Leaf Disc Preventative (Brown Rust) Wheat leaf segments cv. Kanzler are placed on agar in multiwell plates (24-well format) and sprayed with the formulated test compound diluted in water. The leaf disks are inoculated with a spore suspension of the fungus 1 day after application. The inoculated leaf segments are incubated at 19° C. and 75% rh under a light regime of 12 h light/12 h darkness in a climate cabinet and the activity of a compound is assessed as percent disease control compared to untreated when an appropriate level of disease damage appears in untreated check leaf segments (7-9 days after application).

[6] = tested on: Monographella nivalis (Microdochium nivale); assay: Monographella nivalis (Microdochium nivale)/Liquid Culture (Foot Rot Cereals); assay type: cell-based; settings: 200 ppm in the formulation, liquid culture, growth inhibition photometrically 4-5 days after application, compared to untreated control, read-out: disease control
Description: as §1, with “Monographella nivalis (Microdochium nivale)/Liquid” for “Botryotinia fuckeliana (Botrvtis cinerea)/Liquid”, “(Foot Rot Cereals)” for “(Gray Mould)”, “(PDB potato dextrose” for “(Vogels”, “4-5” for “3-4”

COc1ccnc(C(=O)N[C@@H](C)C(=O)O[C@@H](C)c2cccc(Oc3ccc(Cl)cc3)c2)c1O [I.as.001, [(1S)-1-[3-(4-chlorophenoxy)phenyl]ethyl] (2S)-2-[(3-hydroxy-4-methoxy-pyridine-2-carbonyl)amino] propanoate]
≥ 80%: inhibition of growth at 200 ppm [1] | inhibition of growth at 200 ppm [2] | inhibition of growth at 200 ppm [3] | inhibition of growth at 200 ppm [4] | pest or weed control at 200 ppm [5]

COc1ccnc(C(=O)N[C@@H](C)C(=O)O[C@@H](C)c2ccc(-c3cc(C)ccc3C)cc2)c1O [I.p.001, [(1S)-1-[4-(2,5-dimethylphenyl)phenyl]ethyl] (2S)-2-[(3-hydroxy-4-methoxy-pyridine-2-carbonyl)amino] propanoate]
≥ 80%: inhibition of growth at 200 ppm [1] | inhibition of growth at 200 ppm [2] | inhibition of growth at 200 ppm [3] | inhibition of growth at 200 ppm [4] | pest or weed control at 200 ppm [5]

COc1ccnc(C(=O)N[C@@H](C)C(=O)O[C@@H](C)c2ccc(Oc3cccc(Cl)c3)cc2)c1O [I.au.001, [(1S)-1-[4-(3-chlorophenoxy)phenyl]ethyl] (2S)-2-[(3-hydroxy-4-methoxy-pyridine-2-carbonyl)amino] propanoate]
≥ 80%: inhibition of growth at 200 ppm [2] | inhibition of growth at 200 ppm [6] | inhibition of growth at 200 ppm [3] | inhibition of growth at 200 ppm [4] | pest or weed control at 200 ppm [5]

COc1ccnc(C(=O)N[C@@H](C)C(=O)O[C@@H](C)c2ccc(-c3cscc3C)cc2)c1O [I.bb.001, [(1S)-1-[4-(4-methyl-3-thienyl)phneyl]ethyl] (2S)-2-[(3-hydroxy-4-methoxy-pyridine-2-carbonyl)amino] propanoate]
≥ 80%: inhibition of growth at 200 ppm [2] | inhibition of growth at 200 ppm [6] | inhibition of growth at 200 ppm [3] | inhibition of growth at 200 ppm [4] | pest or weed control at 200 ppm [5]

COc1ccnc(C(=O)N[C@@H](C)C(=O)O[C@@H](C)c2cccc(Oc3cccc(Cl)c3)c2)c1O [I.ar.001, [(1S)-1-[3-(3-chlorophenoxy)phenyl]ethyl] (2S)-2-[(3-hydroxy-4-methoxy-pyridine-2-carbonyl)amino] propanoate]
≥ 80%: inhibition of growth at 200 ppm [2] | inhibition of growth at 200 ppm [3] | inhibition of growth at 200 ppm [4] | pest or weed control at 200 ppm [5]

COc1ccnc(C(=O)N[C@@H](C)C(=O)O[C@@H](C)c2ccc(-c3ccccc3C(C)C)cc2)c1O [I.j.001, [(1S)-1-[4-(2-isopropylphenyl)phenyl]ethyl] (2S)-2-[(3-hydroxy-4-methoxy-pyridine-2-carbonyl)amino] propanoate]
≥ 80%: inhibition of growth at 200 ppm [2] | inhibition of growth at 200 ppm [6] | inhibition of growth at 200 ppm [3] | inhibition of growth at 200 ppm [4] | pest or weed control at 200 ppm [5]

COc1ccnc(C(=O)N[C@@H](C)C(=O)O[C@@H](C)c2ccc(Oc3ccc(Cl)cc3)cc2)c1O [I.av.001, [(1S)-1-[4-(4-chlorophenoxy)phenyl]ethyl] (2S)-2-[(3-hydroxy-4-methoxy-pyridine-2-carbonyl)amino] propanoate]
≥ 80%: inhibition of growth at 200 ppm [2] | inhibition of growth at 200 ppm [6] | inhibition of growth at 200 ppm [3] | inhibition of growth at 200 ppm [4] | pest or weed control at 200 ppm [5]

COc1ccnc(C(=O)N[C@@H](C)C(=O)O[C@@H](C)c2ccc(-c3ccccc3)c(F)c2)c1O [I.e.001, [(1S)-1-(3-fluoro-4-phenyl-phenyl)ethyl] (2S)-2-[(3-hydroxy-4-methoxy-pyridine-2-carbonyl)amino] propanoate]
≥ 80%: inhibition of growth at 200 ppm [1] | inhibition of growth at 200 ppm [2] | inhibition of growth at 200 ppm [6] | inhibition of growth at 200 ppm [3] | inhibition of growth at 200 ppm [4] | pest or weed control at 200 ppm [5]

COc1ccnc(C(=O)N[C@@H](C)C(=O)O[C@@H](C)c2ccc(-c3cccc4ccccc34)cc2)c1O [I.z.001, [(1S)-1-[4-(1-naphthyl)phenyl]ethyl] (2S)-2-[(3-hydroxy-4-methoxy-pyridine-2-carbonyl)amino] propanoate]
≥ 80%: inhibition of growth at 200 ppm [1] | inhibition of growth at 200 ppm [2] | inhibition of growth at 200 ppm [3] | inhibition of growth at 200 ppm [4] | pest or weed control at 200 ppm [5]

COc1ccnc(C(=O)N[C@@H](C)C(=O)O[C@@H](C)c2ccc(-c3cccc(Cl)c3)cc2)c1O [I.r.001, [(1SS)-1-[4-(3-chlorophenyl)phenyl]ethyl] (2S)-2-[(3-hydroxy-4-methoxy-pyridine-2-carbonyl)amino] propanoate]
≥ 80%: inhibition of growth at 200 ppm [1] | inhibition of growth at 200 ppm [2] | inhibition of growth at 200 ppm [6] | inhibition of growth at 200 ppm [3] | inhibition of growth at 200 ppm [4] | pest or weed control at 200 ppm [5]

COc1ccnc(C(=O)N[C@@H](C)C(=O)O[C@@H](C)c2cccc(-c3ccccc3)c2)c1O [I.a.001, [(1S)-1-(3-phenylphenyl)ethyl] (2S)-2-[(3-hydroxy-4-methoxy-pyridine-2-carbonyl)amino] propanoate]
≥ 80%: inhibition of growth at 200 ppm [1] | inhibition of growth at 200 ppm [2] | inhibition of growth at 200 ppm [6] | inhibition of growth at 200 ppm [3] | inhibition of growth at 200 ppm [4]

COc1ccnc(C(=O)N[C@@H](C)C(=O)O[C@@H](C)c2ccc(Oc3ccccc3)cc2)c1O [I.at.001, [(1S)-1-(4-phenoxyphenyl)ethyl] (2S)-2-[(3-hydroxy-4-methoxy-pyridine-2-carbonyl)amino] propanoate]
≥ 80%: inhibition of growth at 200 ppm [2] | inhibition of growth at 200 ppm [6] | inhibition of growth at 200 ppm [3] | inhibition of growth at 200 ppm [4] | pest or weed control at 200 ppm [5]

COc1ccnc(C(=O)N[C@@H](C)C(=O)O[C@@H](C)c2ccc(-c3ccc(Cl)c(C)c3)cc2)c1O [I.y.001, [(1S)-1-[4-(4-chloro-3-methyl-phenyl)phenyl]ethyl] (2S)-2-[(3-hydroxy-4-methoxy-pyridine-2-carbonyl)amino] propanoate]
≥ 80%: inhibition of growth at 200 ppm [2] | inhibition of growth at 200 ppm [3] | inhibition of growth at 200 ppm [4] | pest or weed control at 200 ppm [5]

COc1ccnc(C(=O)N[C@@H](C)C(=O)O[C@@H](C)c2ccc(-c3ccc(C(F)(F)F)nc3)cc2)c1O [I.af.001, [(1S)-1-[4-[6-(trifluoromethyl)-3-pyridyl]phenyl]ethyl] (2S)-2-[(3-hydroxy-4-methoxy-pyridine-2-carbonyl)amino] propanoate]
≥ 80%: inhibition of growth at 200 ppm [2] | inhibition of growth at 200 ppm [6] | inhibition of growth at 200 ppm [3] | inhibition of growth at 200 ppm [4] | pest or weed control at 200 ppm [5]

COc1ccnc(C(=O)N[C@@H](C)C(=O)O[C@@H](C)c2ccc(-c3cncc(Cl)c3)cc2)c1O [I.ah.001, [(1S)-1-[4-(5-chloro-3-pyridyl)phenyl]ethyl] (2S)-2-[(3-hydroxy-4-methoxy-pyridine-2-carbonyl)amino] propanoate]
≥ 80%: inhibition of growth at 200 ppm [2] | inhibition of growth at 200 ppm [6] | inhibition of growth at 200 ppm [3] | inhibition of growth at 200 ppm [4] | pest or weed control at 200 ppm [5]

COc1ccnc(C(=O)N[C@@H](C)C(=O)O[C@@H](C)c2cccc(-c3ccccc3Cl)c2)c1O [I.b.001, [(1S)-1-[3-(2-chlorophenyl)phenyl]ethyl] (2S)-2-[(3-hydroxy-4-methoxy-pyridine-2-carbonyl)amino] propanoate]
≥ 80%: inhibition of growth at 200 ppm [1] | inhibition of growth at 200 ppm [6] | inhibition of growth at 200 ppm [3] | inhibition of growth at 200 ppm [4] | pest or weed control at 200 ppm [5]
